# Key:
# Format in all cases: cell-based, mouse
# [1] = tested on: E14 ES cells; assay: ES cell culture in the absence of LIF (undifferentiated state, marker expression)
# Experimental: (§1) E14 ES Cell Cultures. Cells were grown in ES-IMDM media (Lonza, Walkersville, Md.) in a feeder-free condition. ES-IMDM was supplemented with 15% serum, 10^5 U/100 ml of LIF (ESGRO, Millipore, Calif.) and 0.0124% monothioglycerol (MTG; Sigma Aldrich). Cells were grown for 3-5 days with change of medium every day. For inducing differentiation in monolayer culture and to determine the effect of Gö6983 in preventing differentiation, E14 cells were cultured on gelatin-coated plastics for 8 days without LIF. Details of experiments performed at clonal-density are described herein. To maintain E14 cells with Gö6983, serum supplemented ES-IMDM was used in the presence of 5 μM Gö6983 and was passed after every 3-5 days. For all assays involving elucidation of different signaling mechanism responsible for maintenance of pluripotency, cells from a ˜70% confluent ES culture plate were washed two times with 1× phosphate-buffered saline (PBS), trypsinized and plated on a 6-well tissue culture plate and treated with or without LIF or Gö6983 or different inhibitors for ˜10 hours followed by preparation of protein lysates and RNA. The PKCζ knocked-down E14 cells that were generated in this study were maintained in serum supplemented ES-IMDM on gelatin-coated plates in the absence of Gö6983 or LIF or any other inhibitor and passed after 3-5 days. For the experiments herein, cells were continuously cultured at least for 5 consecutive passages (>18 days) on gelatin-coated plates without significant differentiation.
# Quantitative RT-PCR Analysis. RNA was extracted from different cell samples with TRIZOL reagent (Invitrogen). cDNA was prepared by annealing RNA (1 μg) with 250 ng of a 5:1 mixture of random and oligo(dT) primers heated at 68° C. for 10 minutes. This was followed by incubation with Moloney murine leukemia virus reverse transcriptase (50 units) (Invitrogen, Carlsbad, Calif.) combined with 10 mM DTT, RNasin (PROMEGA, Madison, Wis.), and 0.5 mM dNTPs at 42° C. for 1 hour. Reactions were diluted to a final volume of 100 μl and heat inactivated at 97° C. for 5 minutes. Twenty μl PCR reactions contained 2 μl cDNA, 10 μl SYBR Green Master Mix (Applied Biosystems, Foster City, Calif.) and corresponding primer sets. Relative expression levels were determined from a standard curve of serial dilutions of proliferating ES cell cDNA samples and were normalized to the expression of glyceraldehyde-3-phosphate dehydrogenase (GAPDH). At least three independent experiments were done for each set of data.
# Immunostaining. Immunostaining of Oct4, and Nanog expression was performed using standard protocols. Briefly, ES cells were fixed in 4% paraformaldehyde/4% sucrose, permeabilized with 0.1% TRITON X 100 (Sigma). Cells were blocked by adding 1% fish gelatin (Sigma, St. Louis, Mo.) and incubated overnight at 4° C. with 200 μl of primary antibodies. Fluorescent-conjugated secondary antibodies (ALEXA FLUOR 488, and ALEXA FLUOR 568, Molecular Probes, Invitrogen) were used at 1:250 dilutions to visualize cells. Images were captured using a LEICA fluorescence microscope.
# [2] = tested on: PKCζkd cells; assay: PKCζkd cells cultured on collagen IV without LIF
# Excerpt: ES Cell Differentiation on Collagen-IV and With Retinoic Acid. To differentiate ES cells in monolayer culture on collagen IV, around 3×10^4 cells per well were transferred to collagen IV-coated 6-well plates (BD Biosciences, Franklin Lakes, N.J.) cultured for 5 days in ES differentiation medium containing DMEM (Invitrogen), 15% FBS (selected for endothelial differentiation, Stem Cell Technologies, Vancouver, BC), sodium pyruvate and L-glutamine with or without LIF and Gö6983, and were recovered by cell dissociation buffer (BD Biosciences, Franklin Lakes, N.J.). For culturing multiple passages with Gö6983 on collagen-IV, the recovered cells were again plated at a density of ˜3×10^4 cells per well and cultured again for 5 days. […] For RA-induced differentiation on monolayer culture, ES cells were treated with all-trans-retinoic acid (Sigma, St. Louis, Mo.) in ethanol at a concentration of 1 μM with or without LIF and Gö6983 for 6 days followed by study of expression of pluripotency markers (by immunofluorescence or western blot or RT-PCR analysis).
# RNA Interference and Rescue of PKCζ Expression in RKCζkd Cells. Lentiviral vectors containing short hairpin RNAs (shRNAs) targeting mouse PKCζ mRNA were cloned in pLKO1 (Open Biosystems, Huntsville, Ala.). Lentiviral supernatants were produced in HEK-293T cells according to known methods (Dutta, et al. (2008) supra). […]
# [3] = tested on: GSK-3α or GSK-3β; assay: GSK3 phosphorylation in mESCs
# Experimental: as §1, with “For the experiments herein, cells were continuously cultured at least for 5 consecutive passages (>18 days) on gelatin-coated plates without significant differentiation.” left out
structure (smiles),measurement,setting,value
"COc1ccc2c(c1)c(C1=C(c3c[nH]c4ccccc34)C(=O)NC1=O)cn2CCCN(C)C [Gö6983, 3-[1-[3-(dimethylamino)propyl]5-methoxy-1H-indol-3-yl]-4-(1H-indol-3-yl)-1H-pyrrole-2,5-dione]",ES cell differentiation at 2.5 μM,"[1]; 2.5 μM, without LIF",almost completely inhibited
same,concentration that efficiently maintained undifferentiated ES cell colony / inhibits mouse ES cell differentiation,"[1]; concentration profile analysis, absence of LIF",≥ 2.5 µM
same,ES cell differentiation in the absence of LIF,"[1]; mouse ES cells, without LIF",did not differentiate and maintained their undifferentiated colony morphology
same,induction of developmental genes required for lineage commitment,"[1]; quantitative RT-PCR, FIG. 1B",did not occur
same,"expression of pluripotency markers Oct4, Nanog, Sox2 and Rex-1","[1]; quantitative RT-PCR, without LIF, FIG. 1A",maintained the expression of pluripotency markers
same,ES cell pluripotency in media with different batches of fetal bovine serum,[1]; serum from different sources,maintained ES cell pluripotency in all culture media irrespective of serum source
same,expression of pluripotency markers in PKCζkd cells on collagen IV,[2]; FIG. 2C,maintained the expression of pluripotency markers
same,differentiation of PKCζkd cells on collagen IV,[2]; without LIF,inhibited differentiation of PKCζkd cells
same,phosphorylation of GSK-3α or GSK-3β,[3],did not significantly change
